The subject of data set [1] is Mushroom Tyrosinase. As to the kind of experiment: Mushroom Tyrosinase Inhibition Test (Dopa base). It counts as biochemical. To be noted: Dopa base (L-Dopa 1 mg/mL, pH 6.5); sample solution 2% in water, 100 μL in 900 μL substrate; 3 min, 475 nm. How it is done:
Mushroom Tyrosinase Inhibition Test (Dopa Base):
Preparation: L-Dopa (L-3,4-dihydroxyphenylalanine; 1 mg/mL) was dissolved in pH 6.5 buffer solution. Samples were dissolved in water and prepared the concentration at 2%.
Method: 900 μL of L-Dopa solution was added into 100 μL of sample solution (or blank solution) and measured by thermo spectronic 475 nm (Aso or Ab0). 15 μL of mushroom […] buffer solution was added into mixture. After reaction for 3 min, mixture was measured by thermo spectronic (As3 or Ab3) (FIG. 1).

Data set [2] concerns Mushroom Tyrosinase. As to the kind of experiment: Mushroom Tyrosinase Inhibition Test (Tyrosine base). To be noted: Tyrosine base (Tyrosine 5 mg/mL, pH 6.5); sample solution 2% in water, 100 μL in 900 μL substrate; 60 minutes, 492 nm. Type of data set: biochemical. How it is done:
Mushroom Tyrosinase Inhibition Test (Tyrosine Base): Preparation: Tyrosine (5 mg/mL) were dissolved in pH 6.5 buffer solution. Samples were dissolved in water and prepared the concentration at 2%. Method: 900 μL of Tyrosine solution was added into 100 μL of sample solution (or blank solution) and measured by thermo spectronic 492 nm (Aso or Ab0). 40 μL of mushroom tyrosinase buffer solution was added into mixture. After reaction for 60 minutes, the mixture was measured by thermo spectronic (As60 or Ab60) (FIG. 2). Calculation: [formula]

The next data set in a line: Water Solubility. Type of data set: physicochemical. To be noted: in water.

The results in this text go back to US8053474B2, “Compound with carboxyl acid group and amide group and application thereof” (Corum Inc., priority 2009, dated 2011).

Bounds are passed on as bounds.

For the molecule `CN(C)CCNC(=O)CCCCCCCC(=O)O` [(I), 8-(2-Dimethylamino-ethylcarbamoyl)-octanoic acid], the “Mushroom Tyrosinase Inhibition” value is given as 74.3% in the data set with Mushroom Tyrosinase [1] and 82.9% in the data set with Mushroom Tyrosinase [2].
For `CC(C)N(CCNC(=O)CCCCCCCC(=O)O)C(C)C` [(II), 8-(2-Diisopropylamino-ethylcarbamoyl)-octanoic acid], in the data set “Water Solubility”, the “Water Solubility” value is 22%. For the same molecule, the figures for the “Mushroom Tyrosinase Inhibition” value in the data set on Mushroom Tyrosinase [1] and in the data set with Mushroom Tyrosinase [2] were 45.7% and 77.2%, respectively.
In the case of `CN(C)CCCNC(=O)CCCCCCCC(=O)O` [(III), 8-(3-Dimethylamino-propylcarbamoyl)-octanoic acid], the “Water Solubility” value in the data set “Water Solubility” was 33%. The entries for the “Mushroom Tyrosinase Inhibition” value in the data set with Mushroom Tyrosinase [1] and in the data set with Mushroom Tyrosinase [2] were 56.3% and 78.4%, respectively.
On the same counts, the results for `CN(C)CCNC(=O)CCCCCCCCC(=O)O` [(IV), 9-(2-Dimethylamino-ethylcarbamoyl)-nonanoic acid] are 17%, 50.6% and 84.1%.
As to `CN(C)CCCNC(=O)CCCCCCCCC(=O)O` [(V), 9-(3-Dimethylamino-propylcarbamoyl) nonanoic acid], in the data set “Water Solubility”, the “Water Solubility” value came to 29%. Also, the “Mushroom Tyrosinase Inhibition” value was determined as 60.0% in the data set with Mushroom Tyrosinase [1] and 99.3% with Mushroom Tyrosinase [2].
Turning to `O=C(O)CCCCCCCC(=O)O` [Azelaic acid, reference compound], the “Water Solubility” value in “Water Solubility” was under 0.5%.
